Reference: patent publication US9670175B2, “Protected succinates for enhancing mitochondrial ATP-production” (NEUROVIVE PHARMACEUTICALS AB, priority 2012, dated 2017)

Assays:
[1] = system: rotenone-inhibited intact human platelets; assay: mitochondrial complex II screening assay (high-resolution respirometry); type: cell-based; settings: for Mitochondrial Respiration: Complex II-dependent respiration, rotenone-inhibited intact human platelets
Text: FIG. 1 is a schematic figure of mitochondrial complex II screening assay. […] In the assay, mitochondrial function in intact cells is repressed with the respiratory complex I inhibitor rotenone. Drug candidates are compared with endogenous substrates (succinate) before and after permeabilization of the plasma membrane to evaluate bioenergetic enhancement or inhibition.
(§1) Human platelets were isolated from venous blood collected in K2EDTA vials through two centrifugation steps in room temperature. After 10 min at 300 g, platelet rich plasma was collected and transferred to new vials. 5 min at 4600 g yielded a platelet pellet that was resuspended in an appropriate amount of plasma. The cell concentration was determined with a Swelab Alfa Hematocytometer (Boule Medical AB, Stockholm, Sweden).
Measurement of mitochondrial respiration was performed in a high-resolution oxygraph (Oxygraph—2 k, Oroboros Instruments, Innsbruck, Austria) at a constant temperature of 37° C. Platelets were suspended in the 2 mL glass chamber at a concentration of 200-400*10^6 cells/mL.
(1) Initial screen, complex II-effect, was performed with isolated intact platelets in a buffer containing 110 mM sucrose, HEPES 20 mM, taurine 20 mM, K-lactobionate 60 mM, MgCl2 3 mM, KH2PO4 10 mM, EGTA 0.5 mM, BSA 1 g/l, pH 7.1. After baseline respiration with endogenous substrates was established, complex I was inhibited with Rotenone […]. Drug candidates dissolved in DMSO were titrated in steps to 100 μM, 500 μM and 5 mM final concentration. Subsequently, cell membranes were permeabilised with digitonin (1 mg/1*10^6 pit). After stabilized respiration, Succinate 10 mM was added and after the respiration stabilized the experiment was terminated by addition of the complex III inhibitor Antimycin at final concentration 1 μg/mL and the residual respiration measured. […] In the assay, mitochondrial function in intact cells is repressed with the respiratory complex I inhibitor rotenone. Drug candidates are compared with endogenous substrates before and after permeabilization of the plasma membrane to evaluate bioenergetic enhancement or inhibition.
(1) The ideal compound stimulates respiration in rotenone-inhibited intact cells at low concentration in the CII-screening protocol without inhibitory effect on succinate stimulated respiration after permeabilization. After inhibition of respiration with mitochondrial toxins, respiration should be halted. Please refer to FIG. 1. and the listing below.

intact human platelets = assay: mitochondrial convergent respiration screening assay (FCCP-uncoupled, high-resolution respirometry); type: cell-based; settings: control disodium succinate, FIGS. 3A-3C
Text: FIG. 2 is a schematic figure of mitochondrial convergent respiration screening assay. It describes the protocol for evaluating the potency of novel cell-permeable mitochondrial substrates. In the assay, mitochondrial activity is stimulated by uncoupling the mitochondria with the protonophore FCCP. Drug candidates are titrated to obtain the level of maximum convergent (complex I- and complex II-derived) respiration. After rotenone addition, complex II-dependent stimulation is obtained. The complex III-inhibitor antimycin is added to evaluate non mitochondrial oxygen consumption. The reference substance is succinate.
as §1, with “Sweden). […]” for “Sweden).”
(2) In the second protocol, convergent respiration, the same respiration buffer and cell concentrations as described above was used. […] The experiment was terminated by addition of 2 μM Rotenone and 1 μg/mL Antimycin and residual respiration measured. […]

[2] = titrated to 100 μM, 500 μM and 5 mM
[3] = previously known related compounds

Structure (SMILES): CCC(OC(C)=O)OC(=O)CCC(=O)OC(CC)OC(C)=O (stereo not drawn) [Example 7, Succinic Acid bis-(1-acetoxy-propyl)ester]
- Mitochondrial Respiration [1, 2]: ++

Structure (SMILES): COC(=O)CCC(=O)OC [Dimethyl succinate, reference compound]
- activity in the assays exemplified [1]: inactive
- Mitochondrial Respiration [1, 3]: −

Structure (SMILES): CC1(C)OC(=O)C(OC(=O)CCC(=O)OC2OC(C)(C)OC2=O)O1 (stereo not drawn) [Example 14, Succinic Acid bis-(2,2-dimethyl-5-oxo-[1,3]dioxolan-4-yl)ester]
- Mitochondrial Respiration [1, 2]: +++ (stimulation gradually increases and reaches maximum at ≦0.5 mM)

Structure (SMILES): COC(=O)CCC(=O)OC(C)OC(C)=O (stereo not drawn) [Example 6, Succinic Acid 1-Acetoxy-Ethyl Ester Methyl Ester]
- Mitochondrial Respiration [1, 2]: +

Structure (SMILES): COC(=O)C(OC)OC(=O)CCC(=O)OC(OC)C(=O)OC (stereo not drawn) [Example 15, Succinic Acid bis-(methoxy-methoxycarbonyl-methyl)ester]
- Mitochondrial Respiration [1, 2]: (+)

Structure (SMILES): O=C1CCC(=O)OCOCOCO1 [Example 9, 1,3,5,7-Tetraoxa-cycloundecane-8,11-dione]
- Mitochondrial Respiration [1, 2]: +

Structure (SMILES): CCOC(=O)OC(C)OC(=O)CCC(=O)OCC(=O)N(CC)CC (stereo not drawn) [Example 11, Succinic Acid Diethylcarbamoylmethyl Ester 1-Ethoxycarbonyloxy-Ethyl Ester]
- Mitochondrial Respiration [1, 2]: (+)

Structure (SMILES): CCC(=O)OC(C)OC(=O)CCC(=O)OC(C)OC(=O)CC (stereo not drawn) [Example 8, Succinic Acid bis-(1-propionyloxy-ethyl)ester]
- Mitochondrial Respiration [1, 2]: ++

Structure (SMILES): CCN(CC)C(=O)COC(=O)CCC(=O)OCOC(C)=O [Example 10, Succinic Acid Acetoxymethyl Ester Diethylcarbamoylmethyl Ester]
- Mitochondrial Respiration [1, 2]: ++

Structure (SMILES): CCOC(=O)OC(C)OC(=O)CCC(=O)OC(C)OC(C)=O (stereo not drawn) [Example 16, Succinic Acid 1-acetoxy-ethyl Ester 1-ethoxycarbonyloxy-ethyl Ester]
- Mitochondrial Respiration [1, 2]: ++

Structure (SMILES): CC(=O)OC(C)OC(=O)CCC(=O)OCOC(=O)CCC(=O)OC(C)OC(C)=O (stereo not drawn) [Example 17, Succinic Acid 3-(1-acetoxy-ethoxycarbonyl)-propionyloxymethyl Ester 1-acetoxy-ethyl Ester]
- Mitochondrial Respiration [1, 2]: +++ (stimulation gradually increases and reaches maximum at ≦0.5 mM)

Structure (SMILES): COC(=O)CCC(=O)OCOC(C)=O [Example 4, Succinic Acid Acetoxymethyl Ester Methyl Ester]
- Mitochondrial Respiration [1, 2]: ++

Structure (SMILES): CCN(CC)C(=O)COC(=O)CCC(=O)OC(C)OC(C)=O (stereo not drawn) [Example 12, Succinic Acid 1-Acetoxy-Ethyl Ester Diethylcarbamoylmethyl Ester]
- Mitochondrial Respiration [1, 2]: +

Structure (SMILES): CC(=O)OCOC(=O)CCC(=O)OCOC(=O)CCC(=O)OCOC(C)=O [Example 18, Succinic Acid 3-acetoxymethoxycarbonyl-propionyloxymethyl Ester Acetoxymethyl Ester]
- Mitochondrial Respiration [1, 2]: +++ (stimulation gradually increases and reaches maximum at ≦0.5 mM)

Structure (SMILES): COC(=O)CCC(=O)OCOC(=O)C(C)(C)C [Example 2, Succinic Acid 2,2-dimethyl-propionyloxymethyl Ester Methyl Ester]
- Mitochondrial Respiration [1, 2]: ++

Structure (SMILES): COC(=O)CCC(=O)O [Monomethyl succinate, reference compound]
- activity in the assays exemplified [1]: inactive
- Mitochondrial Respiration [1, 3]: −

Structure (SMILES): CC(=O)OCOC(=O)CCC(=O)OC(C)OC(C)=O (stereo not drawn) [Example 13, Succinic Acid 1-Acetoxy-Ethyl Ester Acetoxymethyl Ester]
- respiration (oxygen flux per unit) with stepwise titration compared to control (intact human platelets): increase in respiration
- Mitochondrial Respiration [1, 2]: +++ (stimulation gradually increases and reaches maximum at ≦0.5 mM)

Structure (SMILES): CCOC(=O)CCC(=O)OCC [Diethyl succinate, reference compound]
- activity in the assays exemplified [1]: inactive
- Mitochondrial Respiration [1, 3]: −

Structure (SMILES): CC(=O)OC(C)OC(=O)CCC(=O)OC(C)OC(C)=O (stereo not drawn) [Example 5, Succinic Acid bis-(1-acetoxy-ethyl)ester]
- respiration (oxygen flux per unit) with stepwise titration compared to control (intact human platelets): increase in respiration
- Mitochondrial Respiration [1, 2]: +++ (stimulation gradually increases and reaches maximum at ≦0.5 mM)
